Assay results published in patent publication US12285012B2, “Compositions comprising pyridine carboxylate herbicides with acetolactate synthase (ALS) inhibitor herbicides” (Corteva Agriscience LLC, priority 2018, dated 2025).

How the values were obtained:
[1] = system: kochia (KCHSC, Kochia scoparia); experiment: Greenhouse postemergence herbicidal effect; type: in vivo
Protocol: (§1) Seeds of the desired test plant species were planted in a 90:10% v/v (volume/volume) mixture of PRO-MIX® BX (Premier Tech Horticulture, Quakertown, PA, USA) and PROFILE® GREENS GRADE™ (Profile Products LLC, Buffalo Grove, IL, USA) planting mixture, which typically has a pH of 5.2 to 6.2 and an organic matter content of at least 50 percent, in plastic pots with a surface area of 103.2 square centimeters (cm^2). […] The plants were grown for 7-36 days (d) in a greenhouse with an approximate 14-hour (h) photo-period which was maintained at about 23° C. during the day and 22° C. during the night. Nutrients and water were added on a regular basis and supplemental lighting was provided with overhead metal halide 1000-Watt lamps as necessary. The plants were employed for testing when they reached the second or third true leaf stage.
(§2) Emulsifiable concentrates of each of each pyridine carboxylate herbicide (Compound A or Compound B) were prepared at 100 grams acid equivalent per liter (g ae/L). The emulsifiable concentrates also included a safener, cloquintocet-mexyl, at 120 grams active ingredient per liter (g ai/L), unless otherwise noted below. An aliquot of each emulsifiable concentrate was placed in a 25 mL glass vial and diluted with an aqueous mixture of 1.25% (v/v) ACTIROB® B esterified rapeseed oil (Bayer Crop Science, Research Triangle Park, NC, USA) or MSO® Concentrate with LECI-TECH® methylated soybean oil (Loveland Products, Loveland, CO, USA) to obtain concentrated stock solutions at the highest application rate for each herbicide, based upon a 12 milliliter (mL) application volume at a rate of 187 liters per hectare (L/ha). The concentrated stock solutions were further diluted with an aqueous mixture of 1.25% v/v ACTIROB® B or MSO® Concentrate with LECI-TECH® to obtain stock solutions at reduced application rates for each herbicide. Spray solutions of the herbicide combinations (Compound A or Compound B plus ALS herbicide) were prepared by adding weighed amounts or aliquots of the ALS herbicides to the stock solutions of Compound A or Compound B to form 12-mL spray solutions in two- or three-way combinations.
(§3) The spray solutions were applied to the plant material with an overhead Mandel track sprayer equipped with 8002E nozzles calibrated to deliver 187 L/ha over an application area of 0.503 square meters (m^2) at a spray height of 18 inches (43 centimeters (cm)) above the average plant canopy. Control plants were sprayed in the same manner with the solvent blank. All pyridine carboxylate herbicide (component a) application rates are given as “g ae/ha” and all ALS inhibitor (component b) application rates are given as “g ai/ha.”
(§4) The treated plants and control plants were placed in a greenhouse as described above and watered by sub-irrigation to prevent wash-off of the test compounds. After 20-22 d, the condition of the test plants as compared with that of the control plants was determined visually and scored on a scale of 0 to 100 percent where 0 corresponds to no injury and 100 corresponds to complete kill.

[2] = system: common lambsquarters (CHEAL, Chenopodium album L.); experiment: Greenhouse postemergence herbicidal effect; type: in vivo
Protocol: as §1, §2, §3, §4

[3] = system: common sunflower (HELAN, Helianthus annuus); experiment: Greenhouse postemergence herbicidal effect; type: in vivo; conditions: 8.75 g/ha
Description: (§5) Seeds of the desired test plant species were planted in a 90:10% v/v (volume/volume) mixture of PRO-MIX® BX (Premier Tech Horticulture, Quakertown, PA, USA) and PROFILE® GREENS GRADE™ (Profile Products LLC, Buffalo Grove, IL, USA) planting mixture, which typically has a pH of 5.2 to 6.2 and an organic matter content of at least 50 percent, in plastic pots with a surface area of 103.2 square centimeters (cm^2). In some aspects, to ensure good germination and healthy plants, a fungicide treatment and/or other chemical or physical treatment was applied. The plants were grown for 7-36 days (d) in a greenhouse with an approximate 14-hour (h) photo-period which was maintained at about 23° C. during the day and 22° C. during the night. Nutrients and water were added on a regular basis and supplemental lighting was provided with overhead metal halide 1000-Watt lamps as necessary. The plants were employed for testing when they reached the second or third true leaf stage.
as §2, §3, §4

[4] = system: velvetleaf (ABUTH, Abutilon theophrasti); experiment: Greenhouse postemergence herbicidal effect; type: in vivo; conditions: 8.75 g/ha
Description: as §5, §2, §3, §4

[5] = system: soybean (GLXMA, Glycine max); experiment: Greenhouse postemergence herbicidal effect; type: in vivo; conditions: 8.75 g/ha
Description: as §5, §2, §3, §4

[6] = system: broad-leaf dock (RUMOB, Rumex obtusifolius); experiment: Greenhouse postemergence herbicidal effect; type: in vivo; conditions: for % visual injury, Obs: 8.75 g/ha
Description: as §5, §2, §3, §4

[7] = system: ivyleaf morningglory (IPOHE, Ipomoea hederacea); experiment: Greenhouse postemergence herbicidal effect; type: in vivo; conditions: 8.75 g/ha
Description: as §5, §2, §3, §4

[8] = system: pigweed (AMARE, Amaranthus retroflexus); experiment: Greenhouse postemergence herbicidal effect; type: in vivo; conditions: for % visual injury, Obs: 8.75 g/ha
Protocol: (§6) The plants were grown for 7-36 days (d) in a greenhouse with an approximate 14-hour (h) photo-period which was maintained at about 23° C. during the day and 22° C. during the night. Nutrients and water were added on a regular basis and supplemental lighting was provided with overhead metal halide 1000-Watt lamps as necessary. The plants were employed for testing when they reached the second or third true leaf stage.
(§7) The emulsifiable concentrates also included a safener, cloquintocet-mexyl, at 120 grams active ingredient per liter (g ai/L), unless otherwise noted below.
(§8) Control plants were sprayed in the same manner with the solvent blank. All pyridine carboxylate herbicide (component a) application rates are given as “g ae/ha” and all ALS inhibitor (component b) application rates are given as “g ai/ha.”
as §4

[9] = system: wild buckwheat (POLCO, Polygonum convolvulus); experiment: Greenhouse postemergence herbicidal effect; type: in vivo; conditions: for % visual injury, Obs: 8.75 g/ha
Protocol: as §6, §7, §8, §4

[10] = system: wild pansy (VIOTR, Viola tricolor); experiment: Greenhouse postemergence herbicidal effect; type: in vivo; conditions: for % visual injury, Obs: 8.75 g/ha
Protocol: as §6, §7, §8, §4

[11] = system: winter rape (BRSNW, Brassica napus); experiment: Greenhouse postemergence herbicidal effect; type: in vivo
Protocol: as §6, §7, §8, §4

[12] = system: wild chamomile (MATCH, Matricaria chamomilla); experiment: Greenhouse postemergence herbicidal effect; type: in vivo
Protocol: as §6, §7, §8, §4

[13] = system: Canadian thistle (CIRAR, Cirsium arvense); experiment: Greenhouse postemergence herbicidal effect; type: in vivo
Protocol: as §6, §7, §8, §4

[14] = system: chickweed (STEME, Stellaria media); experiment: Greenhouse postemergence herbicidal effect; type: in vivo; conditions: for % visual injury, Obs: 8.75 g/ha
Protocol: as §6, §7, §8, §4

[15] = system: wild mustard (SINAR, Sinapis arvensis); experiment: Greenhouse postemergence herbicidal effect; type: in vivo
Protocol: as §6, §7, §8, §4

[16] = system: large crabgrass (DIGSA, Digitaria sanguinalis); experiment: Greenhouse postemergence herbicidal effect; type: in vivo; conditions: DIGSA; Flupyrsulfuron 10 g/ha
Description: as §5, §2, §3, §4

spring wheat (TRZAS) = type: in vivo, Triticum aestivum
Protocol: as §6, §7, §8, §4

[17] = system: Russian thistle (SASKR, Salsola kali); experiment: Greenhouse postemergence herbicidal effect; type: in vivo; conditions: 10 g/ha
Protocol: as §6, §7, §8, §4

spring barley (HORVS) = type: in vivo, Hordeum vulgare; conditions: 10 g/ha
Protocol: as §6, §7, §8, §4

Compound: CCS(=O)(=O)c1nc2ccccn2c1S(=O)(=O)NC(=O)Nc1nc(OC)cc(OC)n1 [Sulfosulfuron, sulfosulfuron]
- pest or weed control at 8.75 g/ha ([1]; Bassia scoparia, post-emergence, 8.75 g/ha, read-out: % visual injury, Obs): 0%
- % visual injury ([1]; Sulfosulfuron 140 g/ha): 8%
- % visual injury, Obs ([2]; 8.75 g/ha): 0%
- % visual injury ([2]; Sulfosulfuron 140 g/ha): 43%
- % visual injury, Obs [3]: 100%
- % visual injury, Obs [4]: 30%
- % visual injury, Obs [5]: 85%
- % visual injury, Obs [6]: 0%
- % visual injury, Obs [7]: 78%
- % visual injury, Obs [8]: 40%
- % visual injury ([8]; Sulfosulfuron 140 g/ha): 88%
- % visual injury, Obs [9]: 5%
- % visual injury ([9]; Sulfosulfuron 140 g/ha): 83%
- % visual injury, Obs [10]: 55%
- % visual injury ([11]; Sulfosulfuron 140 g/ha): 98%
- % visual injury ([12]; Sulfosulfuron 140 g/ha): 73%
- pest or weed control at 8.75 g/ha ([13]; Cirsium arvense, post-emergence, 8.75 g/ha, read-out: % visual injury, Obs): 5%
- % visual injury ([13]; Sulfosulfuron 140 g/ha): 45%
- % visual injury, Obs [14]: 53%
- % visual injury ([15]; Sulfosulfuron 140 g/ha): 99%

Compound: flupyrsulfuron
- % visual injury, Obs ([1]; 10 g/ha): 15%
- Obs % visual injury ([1]; KCHSC, Flupyrsulfuron 10 g/ha): 30%
- % visual injury, Obs ([2]; 10 g/ha): 75%
- Obs % visual injury ([2]; CHEAL, Flupyrsulfuron 10 g/ha): 63%
- Obs % visual injury [16]: 0%
- Obs % visual injury ([6]; RUMOB, Flupyrsulfuron 10 g/ha): 70%
- % visual injury, Obs (spring wheat (TRZAS); 10 g/ha): 0%
- Obs % visual injury (spring wheat (TRZAS); TRZAS, Flupyrsulfuron 10 g/ha): 15%
- % visual injury, Obs [17]: 45%
- Obs % visual injury ([8]; AMARE, Flupyrsulfuron 10 g/ha): 97%
- Obs % visual injury ([9]; POLCO, Flupyrsulfuron 10 g/ha): 91%
- Obs % visual injury ([10]; VIOTR, Flupyrsulfuron 10 g/ha): 8%
- % visual injury, Obs ([12]; 10 g/ha): 83%
- Obs % visual injury ([13]; CIRAR, Flupyrsulfuron 10 g/ha): 84%
- Obs % visual injury ([14]; STEME, Flupyrsulfuron 10 g/ha): 80%
- % visual injury, Obs (spring barley (HORVS)): 8%

Compound: halosulfuron
- % visual injury, Obs ([1]; 8.75 g/ha): 0%
- % visual injury ([1]; Halosulfuron 8.75 g/ha): 15%
- % visual injury, Obs ([2]; 8.75 g/ha): 0%
- % visual injury ([2]; Halosulfuron 8.75 g/ha): 10%
- % visual injury, Obs [3]: 100%
- % visual injury, Obs [4]: 95%
- % visual injury, Obs [5]: 78%
- % visual injury, Obs [6]: 0%
- % visual injury, Obs [7]: 0%
- % visual injury, Obs [8]: 40%
- % visual injury ([8]; Halosulfuron 8.75 g/ha): 95%
- % visual injury, Obs [9]: 5%
- % visual injury ([9]; Halosulfuron 8.75 g/ha): 63%
- % visual injury, Obs [10]: 15%
- % visual injury ([11]; Halosulfuron 8.75 g/ha): 88%
- % visual injury ([12]; Halosulfuron 8.75 g/ha): 78%
- % visual injury, Obs ([13]; 8.75 g/ha): 10%
- % visual injury ([13]; Halosulfuron 8.75 g/ha): 40%
- % visual injury, Obs [14]: 0%
- % visual injury ([15]; Halosulfuron 8.75 g/ha): 95%
